Legend:
[1] = target: T1, Ephrin type-A receptor 3 (Homo sapiens) (UniProt P29320); test: Selectivity interaction (KinomeScan (DiscoverX)) EUB0000229b EPHA3; conditions: at 10 µM
T1 sequence (whole entry): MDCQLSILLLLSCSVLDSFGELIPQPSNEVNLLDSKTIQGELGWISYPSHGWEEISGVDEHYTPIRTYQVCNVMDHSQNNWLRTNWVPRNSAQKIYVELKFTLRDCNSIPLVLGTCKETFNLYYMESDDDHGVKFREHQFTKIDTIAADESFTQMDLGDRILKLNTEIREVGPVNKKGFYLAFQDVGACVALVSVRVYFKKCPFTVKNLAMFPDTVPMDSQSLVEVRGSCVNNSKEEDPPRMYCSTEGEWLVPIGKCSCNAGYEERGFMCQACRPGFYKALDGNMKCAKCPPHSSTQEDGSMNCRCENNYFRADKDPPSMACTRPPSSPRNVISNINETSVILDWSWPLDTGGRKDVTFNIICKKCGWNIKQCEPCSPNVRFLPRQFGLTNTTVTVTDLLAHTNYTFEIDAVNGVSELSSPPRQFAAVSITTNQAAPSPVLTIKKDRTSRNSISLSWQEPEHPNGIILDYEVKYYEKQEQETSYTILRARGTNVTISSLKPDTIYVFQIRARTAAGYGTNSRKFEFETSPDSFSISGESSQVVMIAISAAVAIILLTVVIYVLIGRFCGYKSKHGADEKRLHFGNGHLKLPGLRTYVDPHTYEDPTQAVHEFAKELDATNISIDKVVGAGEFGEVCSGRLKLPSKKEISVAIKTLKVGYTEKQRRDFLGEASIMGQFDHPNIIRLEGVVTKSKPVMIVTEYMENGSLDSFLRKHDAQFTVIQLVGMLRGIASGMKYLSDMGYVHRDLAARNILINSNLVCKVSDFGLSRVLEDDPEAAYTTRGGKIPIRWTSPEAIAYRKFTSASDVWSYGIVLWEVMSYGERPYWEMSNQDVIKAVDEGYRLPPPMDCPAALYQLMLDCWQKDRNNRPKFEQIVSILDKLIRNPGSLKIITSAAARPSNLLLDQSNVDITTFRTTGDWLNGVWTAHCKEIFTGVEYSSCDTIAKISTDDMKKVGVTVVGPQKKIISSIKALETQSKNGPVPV

[2] = target: T2, Cyclin-G-associated kinase (Homo sapiens) (UniProt O14976); test: Selectivity interaction (KinomeScan (DiscoverX)) EUB0000695a GAK; conditions: at 100 nM
T2 sequence (whole entry): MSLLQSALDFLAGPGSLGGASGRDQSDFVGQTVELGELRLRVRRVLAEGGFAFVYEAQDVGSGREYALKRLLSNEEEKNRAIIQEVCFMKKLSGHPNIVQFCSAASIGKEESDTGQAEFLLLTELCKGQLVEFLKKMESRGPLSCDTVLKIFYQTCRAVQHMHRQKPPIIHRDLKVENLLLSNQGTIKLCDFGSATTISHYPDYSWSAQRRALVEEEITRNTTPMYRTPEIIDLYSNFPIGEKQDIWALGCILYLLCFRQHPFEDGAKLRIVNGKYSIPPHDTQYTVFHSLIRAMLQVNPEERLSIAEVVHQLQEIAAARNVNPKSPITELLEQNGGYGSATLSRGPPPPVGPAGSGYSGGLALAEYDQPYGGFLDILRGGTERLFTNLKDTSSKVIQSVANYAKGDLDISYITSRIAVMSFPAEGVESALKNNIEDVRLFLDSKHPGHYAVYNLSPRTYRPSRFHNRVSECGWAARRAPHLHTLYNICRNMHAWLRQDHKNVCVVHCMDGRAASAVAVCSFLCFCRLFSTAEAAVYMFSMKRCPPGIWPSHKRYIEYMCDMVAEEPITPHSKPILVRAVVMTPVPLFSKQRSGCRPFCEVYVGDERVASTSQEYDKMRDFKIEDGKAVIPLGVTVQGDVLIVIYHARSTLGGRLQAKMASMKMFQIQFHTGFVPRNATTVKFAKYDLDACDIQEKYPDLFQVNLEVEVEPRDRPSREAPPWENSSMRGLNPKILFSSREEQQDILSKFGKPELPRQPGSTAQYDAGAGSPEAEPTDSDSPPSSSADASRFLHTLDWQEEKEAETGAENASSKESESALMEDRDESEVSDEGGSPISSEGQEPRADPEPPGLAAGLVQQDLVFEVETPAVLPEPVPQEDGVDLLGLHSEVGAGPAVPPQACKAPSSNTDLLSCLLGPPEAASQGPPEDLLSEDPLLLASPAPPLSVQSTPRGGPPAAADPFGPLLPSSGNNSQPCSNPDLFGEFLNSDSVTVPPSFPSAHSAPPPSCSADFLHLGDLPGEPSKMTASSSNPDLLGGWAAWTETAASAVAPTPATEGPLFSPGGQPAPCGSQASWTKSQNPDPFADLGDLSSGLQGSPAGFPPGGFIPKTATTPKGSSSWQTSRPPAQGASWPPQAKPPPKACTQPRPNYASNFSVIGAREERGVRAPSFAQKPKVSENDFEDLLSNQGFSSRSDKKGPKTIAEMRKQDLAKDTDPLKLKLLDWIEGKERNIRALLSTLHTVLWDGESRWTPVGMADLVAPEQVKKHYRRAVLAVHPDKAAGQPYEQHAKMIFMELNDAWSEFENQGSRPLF

[3] = target: Homeodomain-interacting protein kinase 3 (Homo sapiens, UniProt Q9H422); test: Selectivity interaction (KinomeScan (DiscoverX)) EUB0000607a HIPK3; conditions: at 10 µM
Homeodomain-interacting protein kinase 3, sequence (Q9H422 whole entry, looked up): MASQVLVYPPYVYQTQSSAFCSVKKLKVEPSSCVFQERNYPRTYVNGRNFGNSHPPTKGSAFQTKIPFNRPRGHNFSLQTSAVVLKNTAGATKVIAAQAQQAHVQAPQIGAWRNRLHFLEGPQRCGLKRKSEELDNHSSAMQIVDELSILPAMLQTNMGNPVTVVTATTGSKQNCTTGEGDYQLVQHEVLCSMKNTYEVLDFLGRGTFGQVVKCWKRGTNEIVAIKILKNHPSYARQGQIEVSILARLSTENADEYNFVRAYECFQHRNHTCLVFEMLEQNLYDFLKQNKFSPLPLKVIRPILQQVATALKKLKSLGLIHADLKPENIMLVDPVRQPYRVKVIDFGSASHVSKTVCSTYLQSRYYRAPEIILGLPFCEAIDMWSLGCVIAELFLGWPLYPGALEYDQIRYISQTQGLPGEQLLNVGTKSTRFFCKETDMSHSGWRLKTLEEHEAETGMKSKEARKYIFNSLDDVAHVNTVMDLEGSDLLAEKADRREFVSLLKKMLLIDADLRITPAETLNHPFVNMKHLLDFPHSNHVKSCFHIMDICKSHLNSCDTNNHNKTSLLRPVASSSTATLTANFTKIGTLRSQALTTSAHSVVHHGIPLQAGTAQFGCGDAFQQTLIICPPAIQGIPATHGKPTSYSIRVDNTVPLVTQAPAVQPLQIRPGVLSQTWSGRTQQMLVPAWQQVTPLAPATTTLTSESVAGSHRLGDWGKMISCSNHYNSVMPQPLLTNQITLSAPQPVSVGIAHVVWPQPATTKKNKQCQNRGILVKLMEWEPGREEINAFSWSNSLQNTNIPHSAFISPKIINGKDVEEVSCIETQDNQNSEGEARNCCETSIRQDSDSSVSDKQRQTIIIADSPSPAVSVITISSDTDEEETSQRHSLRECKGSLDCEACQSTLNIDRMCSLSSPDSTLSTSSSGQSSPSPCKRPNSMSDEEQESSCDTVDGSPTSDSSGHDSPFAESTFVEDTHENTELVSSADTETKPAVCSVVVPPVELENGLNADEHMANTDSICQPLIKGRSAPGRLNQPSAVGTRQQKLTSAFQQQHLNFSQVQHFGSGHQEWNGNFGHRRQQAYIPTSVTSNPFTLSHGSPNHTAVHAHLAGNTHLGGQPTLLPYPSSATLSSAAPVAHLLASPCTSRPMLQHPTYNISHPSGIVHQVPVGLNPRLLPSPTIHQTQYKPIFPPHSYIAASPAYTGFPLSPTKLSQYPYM

[4] = target: T3, 5-hydroxytryptamine receptor 3A (Homo sapiens) (UniProt P46098); test: Selectivity interaction (Panel of kinases, GPCRs, ion channels and transporters (enzymatic assay)) EUB0000223bCl HTR3A
T3 sequence (whole entry): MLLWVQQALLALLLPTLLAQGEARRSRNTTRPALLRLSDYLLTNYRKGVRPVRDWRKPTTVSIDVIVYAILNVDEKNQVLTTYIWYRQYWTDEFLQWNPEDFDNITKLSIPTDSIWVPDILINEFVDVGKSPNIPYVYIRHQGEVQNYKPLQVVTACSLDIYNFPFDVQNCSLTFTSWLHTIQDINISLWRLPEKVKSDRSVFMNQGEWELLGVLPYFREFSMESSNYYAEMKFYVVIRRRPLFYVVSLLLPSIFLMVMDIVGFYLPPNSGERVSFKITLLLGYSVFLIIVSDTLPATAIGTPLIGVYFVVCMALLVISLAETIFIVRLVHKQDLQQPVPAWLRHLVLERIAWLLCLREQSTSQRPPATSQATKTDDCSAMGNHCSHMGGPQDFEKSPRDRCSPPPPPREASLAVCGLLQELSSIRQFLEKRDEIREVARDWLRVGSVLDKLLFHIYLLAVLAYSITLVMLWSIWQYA

`COc1cc(N(C)c2ccnc3ccc(C(F)(F)F)cc23)cc(OC)c1OC` showed a % binding [1] of 93%.

`Cc1cc(F)c(C(=O)Nc2cccc(-c3nncn3C(C)C)n2)cc1-n1cnc(C2CC2)c1` gave a % of control [2] of 88%.

`CNC(=O)Nc1ccc(-c2nc(N3CC4CCC(C3)O4)c3cnn(C4CCC5(CC4)OCCO5)c3n2)cc1` showed a % of control [3] of 42%.

Work on `COc1cc(C(=O)N2CC[C@@H](O)[C@@H](N)C2)cc2nc(-c3cc4ccccc4n3CC3CC3)n(C)c12` yielded a pXC50 [4] of 5.9 M.

— ChEMBL document CHEMBL5465560, “Selectivity Literature for EUbOPEN Chemogenomic Library” (2024)
